Columns and labels:
[1] = test system: colorectal cancer cells; assay: Cellular survival rate of colorectal cancer cells by absorbance (Experimental Example 4); format: cell-based; details: as in Example <3-2>
Experimental: (§1) Particularly, 100 μl of poly-HEMA (Sigma) at the concentration of 12 mg/ml was loaded in 96-well plate, which stood in clean bench for 1 day, followed by drying. On the next day, the plate was coated with Poly-HEMA once again. Cells were distributed in the poly-HEMA coated plate by 100 μl/well (1×10^4 cells/well). At that time, serum-free medium was used. 6 days later, 10 μl of CCK-8 reagent (Dojindo cat. CK04-13) was added to each well, followed by reaction for 3 hours. Then, OD450 was measured.
In particular, a cellular survival rate was measured using absorbance in the same manner as in Example <3-2>.

[2] = test system: SW480 cells; assay: Transwell invasion assay with peptide-treated SW480 cells; format: cell-based, human; details: for invasion of cells reduced by: FIGS. 18 and 19, concentration not given; for invasion of colorectal cancer cells compared to the control: 50 μM, control DMSO 0.25%
Experimental: (§2) Particularly, the porous membrane of 24-well transwell plate (8 μm pore size; Costar, USA) was coated with 100 μl of matrigel (BD Biosciences, USA) diluted in serum free medium at the concentration of […], which stood at room temperature for 1 hour for fixing. The lower part of the transwell plate was coated with 100 μl of collagen type I (Sigma) at the concentration of […]. The said collagen type I was used as a chemoattractant. 1×10^4 cells resuspended in serum free medium were distributed in the upper chamber of the said 24-well transwell plate, followed by culture at 37° C. with 5% CO2 for 48 hours, during which the cells were induced to migrate from the upper chamber to the lower chamber. The non-migrated cells were eliminated from the surface of the upper chamber. […] The excessive crystal violet solution was washed off with distilled water. The selected area (×100) was photographed. The number of the cells migrated was counted from 5 different selected areas. Then, mean value and standard error were obtained.
SW480 colorectal cancer cells were treated with peptides originated from C12orf59, and effects of the peptids on invasion of the cells were analyzed.

[3] = test system: SW480sub cells; assay: Transwell matrigel invasion assay with peptide-treated SW480sub cells; format: cell-based, human; details: for invasion reduced compared to vehicle control: peptide 50 μM; for colorectal cancer cell invasion reduced by / inhibitory effects on invasion: peptide 100 μg/ml, 48 hours
Experimental: SW480sub was subpopulation of SW480 having high in vitro invasion and in vivo metastasis ability. The effect of each peptide on colorectal cancer cell invasion was analyzed using the said SW480sub. SW480sub cells were mixed with each peptide, followed by pre-incubation for 30 minutes.
as §2

[4] = test system: SW480 cells; assay: Cell survivability under anchorage independent condition (polyHEMA, CCK-8, OD450) with peptides; format: cell-based, human; details: 6 days, serum-free
Experimental: 6 days later, cell survivability was measured by colorimetric technique under the anchorage independent condition.
as §1

[5] = test system: C8161 (human melanoma) cell line; assay: Transwell invasion assay with C8161 cells in the presence of the peptide; format: cell-based; details: 24 h
Experimental: Specifically, C8161 (human melanoma) cell line was cultured in DMEM containing 10% FBS, penicillin-streptomycin, L-glutamine, sodium pyruvate and glucose. C8161 cells (1×10^4) in the presence of the peptide were plated in serum-free medium on 24-well Transwell inserts (8 μm pore size; Costar, USA) coated with 25 μg of […] (BD Biosciences, USA). The underside of the insert was coated with 100 μl of collagen type I (Sigma) at the concentration of 5 μg/ml. […] The number of cells that had invaded was counted in five representative fields per insert. Then, mean value and standard deviation were obtained.

Row | Substance | survival of colorectal cancer cells [1] | invasion of cells reduced by [2] [%] | invasion reduced compared to vehicle control [3] [%] | invasion of colorectal cancer cells compared to the control [2] | also measured
1 | PCCISSCCLTTDWVH (B_N-term) | inhibitory effects on the survival of colorectal cancer cells in a concentration-dependent manner | – | – | – | –
2 | SWRPQPCCISSCCLT (B_C-term1) | inhibitory effects on the survival of colorectal cancer cells in a concentration-dependent manner | – | – | – | –
3 | NPEHCLT (A_Cen) | – | 49 | – | – | –
4 | EENCGNP (A_C-term2) | – | 38 | 46 | inhibited the invasion | colorectal cancer cell invasion reduced by / inhibitory effects on invasion [3]: about 99%
5 | CLTTDWVH (A/B common) | – | – | – | effects similar to those of A_C-term2 and B_C-term2 | –
6 | PCCISS (B_Cen2) | – | – | – | superior inhibitory effects | –
7 | EENCGNPEHCLTTDWVH (A_intact) [17 amino acid peptide from the extracellular domain of C12orf59 isoform 1] | – | – | 40 | – | cell survivability reduced by [4]: 82%; C8161 invasion reduced by ([5]; 30 μg/ml): 10%; C8161 invasion reduced by ([5]; 100 μg/ml): 45%
8 | SWRPQPCCIS (B_C-term2) | – | 39 | 50 | inhibited the invasion | –
9 | EENCGNPEHCLT (A_C-term1) | inhibitory effects on the survival of colorectal cancer cells in a concentration-dependent manner | 48 | 48 | – | colorectal cancer cell invasion reduced by / inhibitory effects on invasion [3]: about 92%
10 | NPEHCLTTDWVH (A_N-term) | inhibitory effects on the survival of colorectal cancer cells in a concentration-dependent manner | 39 | – | – | –
